The text below walks through data of ChEMBL document CHEMBL6087487, “Discovery of a 2'-α-Fluoro-2'-β-C-(fluoromethyl) Purine Nucleotide Prodrug as a Potential Oral Anti-SARS-CoV-2 Agent” (J Med Chem, 2025).

Molecules are shown by their SMILES.

In experiment [1] the test system is SARS-CoV-2. The experiment is described as follows: Antiviral activity against SARS-CoV-2 Omicron BA.5 infected in HPAEpiC cells assessed as inhibition of viral replication pretreated with compound and subsequent introduction of viral infection for 1 hr followed by inoculum removal and compound washout and further treatment with compound for 48 hrs by RT-qPCR analysis. The experiment is classed as functional, organism-based. As to conditions: Severe acute respiratory syndrome coronavirus 2, Omicron BA.5, HPAEpiC. A general note: In qPCR the cycle at which signal appears reflects the starting amount.

Experiment [2] deals with SARS-CoV-2. The experiment is described as follows: Antiviral activity against SARS-CoV-2 20SF107 infected in HPAEpiC cells assessed as inhibition of viral replication pretreated with compound and subsequent introduction of viral infection for 1 hr followed by inoculum removal and compound washout and further treatment with compound for 48 hrs by RT-qPCR analysis. The class given is functional, organism-based. As to conditions: for EC50: Severe acute respiratory syndrome coronavirus 2, 20SF107, HPAEpiC.

Take `CNc1nc(N)nc2c1ncn2[C@@H]1O[C@H](CO[P@@](=O)(N[C@@H](C)C(=O)OC(C)C)Oc2ccccc2)[C@@H](O)[C@]1(F)CF.O=S(=O)(O)O`: the EC50 in the experiment on SARS-CoV-2 [1] is 960 nM; with SARS-CoV-2 [2], 560 nM. For the same molecule, in the experiment with SARS-CoV-2 [2] (Severe acute respiratory syndrome coronavirus 2, time 49.0 hrs), the inhibition entry was “Dose-dependent-effect”.
Consider `CCC(CC)COC(=O)[C@H](C)N[P@](=O)(OC[C@H]1O[C@@](C#N)(c2ccc3c(N)ncnn23)[C@H](O)[C@@H]1O)Oc1ccccc1` [REMDESIVIR], for which the concentration for a half-maximal effect (EC50) with SARS-CoV-2 [2] is 910 nM.

In general, EC50 refers to the midpoint of the concentration-response curve.
